ChEMBL document CHEMBL3763139, “Design, synthesis and biological evaluation of novel donepezil-coumarin hybrids as multi-target agents for the treatment of Alzheimer's disease” (Bioorg Med Chem, 2016)
Active and inactive are the calls of the source. No cut-off for these calls is given here.

Legend:
Acetylcholinesterase [1] = biological target: Acetylcholinesterase (Electrophorus electricus, UniProt O42275)
Description: Inhibition of electric eel AChE using acetylthiocholine iodide as substrate preincubated for 6 mins followed by substrate addition measured up to 180 secs by spectrophotometric-based Ellman's method

[2] = biological target: T1, Amine oxidase [flavin-containing] A (Homo sapiens, UniProt P21397); assay: Inhibition of human recombinant MAO-A using p-tyramine substrate at 100 uM after 15 mins by fluorimetric analysis; conditions: 0.25 h
T1 sequence (P21397 whole entry): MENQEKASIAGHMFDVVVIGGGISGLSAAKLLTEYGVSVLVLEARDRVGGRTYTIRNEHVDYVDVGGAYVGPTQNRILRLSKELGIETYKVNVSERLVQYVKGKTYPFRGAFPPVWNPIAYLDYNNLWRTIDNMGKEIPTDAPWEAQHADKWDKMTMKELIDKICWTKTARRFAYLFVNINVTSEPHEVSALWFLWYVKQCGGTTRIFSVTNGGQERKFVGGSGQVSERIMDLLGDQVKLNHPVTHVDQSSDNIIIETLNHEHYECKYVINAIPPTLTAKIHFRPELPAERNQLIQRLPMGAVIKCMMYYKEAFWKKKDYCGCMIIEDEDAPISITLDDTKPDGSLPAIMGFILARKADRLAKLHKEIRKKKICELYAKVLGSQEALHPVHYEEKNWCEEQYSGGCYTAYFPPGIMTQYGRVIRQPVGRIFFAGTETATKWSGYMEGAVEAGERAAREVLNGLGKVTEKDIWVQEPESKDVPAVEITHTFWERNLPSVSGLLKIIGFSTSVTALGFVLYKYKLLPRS

Cholinesterase [3] = biological target: Cholinesterase (Equus caballus, UniProt P81908)
Description: Inhibition of equine serum BuChE using S-butyrylthiocholine iodide as substrate preincubated for 6 mins followed by substrate addition measured up to 180 secs by spectrophotometric-based Ellman's method

Homo sapiens = organism: Homo sapiens; assay: Selectivity index, ratio of IC50 for human recombinant MAO-A to IC50 for human recombinant MAO-B
[4] = biological target: T2, Amine oxidase [flavin-containing] B (Homo sapiens, UniProt P27338)
T2 sequence (P27338 whole entry): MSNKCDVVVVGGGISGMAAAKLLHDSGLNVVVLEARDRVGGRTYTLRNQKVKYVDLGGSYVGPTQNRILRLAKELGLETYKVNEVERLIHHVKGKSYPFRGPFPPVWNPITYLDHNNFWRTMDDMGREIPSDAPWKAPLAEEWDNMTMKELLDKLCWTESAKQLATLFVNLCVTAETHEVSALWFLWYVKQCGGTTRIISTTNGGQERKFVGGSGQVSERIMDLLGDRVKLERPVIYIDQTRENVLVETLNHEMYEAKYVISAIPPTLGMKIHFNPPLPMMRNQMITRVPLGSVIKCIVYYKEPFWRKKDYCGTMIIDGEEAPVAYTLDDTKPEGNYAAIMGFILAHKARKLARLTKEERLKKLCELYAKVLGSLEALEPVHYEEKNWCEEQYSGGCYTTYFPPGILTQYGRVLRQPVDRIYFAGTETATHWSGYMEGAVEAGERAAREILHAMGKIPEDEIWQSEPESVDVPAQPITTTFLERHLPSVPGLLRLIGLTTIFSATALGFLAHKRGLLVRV
Description: Inhibition of human recombinant MAO-B using p-tyramine substrate after 15 mins by fluorimetric analysis

Cholinesterase [5] = biological target: Cholinesterase (Homo sapiens, UniProt P06276)
Description: Inhibition of human serum BuChE using S-butyrylthiocholine iodide as substrate preincubated for 6 mins followed by substrate addition measured up to 180 secs by spectrophotometric-based Ellman's method

Acetylcholinesterase [6] = biological target: Acetylcholinesterase (Homo sapiens, UniProt P22303)
Description: Inhibition of human erythrocyte AChE using acetylthiocholine iodide as substrate preincubated for 6 mins followed by substrate addition measured up to 180 secs by spectrophotometric-based Ellman's method

[7] = Hepatotoxicity against human HepG2 cells assessed as cell viability at 25 uM after 24 hrs by MTT assay; format: toxicity, cell-based; conditions: read-out: Activity
[8] = Hepatotoxicity against human HepG2 cells assessed as cell viability at 50 uM after 24 hrs by MTT assay; format: toxicity, cell-based; conditions: read-out: Activity
[9] = biological target: T2, Amine oxidase [flavin-containing] B; assay: Competitive inhibition of human recombinant MAO-B using p-tyramine substrate at 1.5 to 6 uM after 15 mins by Lineweaver-Burk reciprocal plot analysis; conditions: 0.25 h
[10] = biological target: Acetylcholinesterase (Electrophorus electricus) (UniProt O42275); assay: Mixed type inhibition of electric eel AChE using acetylthiocholine iodide as substrate at 0.44 to 1.74 uM preincubated for 6 mins followed by substrate addition measured up to 180 secs by Lineweaver-Burk reciprocal plot analysis
[11] = biological target: Cholinesterase (Equus caballus) (UniProt P81908); conditions: 0.44 to 1.74 uM
in vitro = conditions: PAMPA, pH 7.4
Description: Permeability of the compound at 25 ug/ml at pH 7.4 after 16 hrs by PAMPA

[12] = Cytotoxicity against human SH-SY5Y cells assessed as cell viability at 1 uM after 24 hrs by MTT assay; format: cell-based; conditions: read-out: Activity
[13] = Cytotoxicity against human SH-SY5Y cells assessed as cell viability at 10 uM after 24 hrs by MTT assay; format: cell-based; conditions: read-out: Activity
[14] = Hepatotoxicity against human HepG2 cells assessed as cell viability at 12.5 uM after 24 hrs by MTT assay; format: toxicity, cell-based; conditions: read-out: Activity
[15] = Hepatotoxicity against human HepG2 cells assessed as cell viability at 6.25 uM after 24 hrs by MTT assay; format: toxicity, cell-based; conditions: read-out: Activity
[16] = biological target: T2, Amine oxidase [flavin-containing] B; assay: Reversible inhibition of human recombinant MAO-B assessed as enzyme recovery using p-tyramine substrate at 100 times IC50 preincubated for 30 mins followed by 100 fold dilution by fluorimetric analysis relative to control; design: scale not given: the % may be the effect or the level left
[17] = Cytotoxicity against human SH-SY5Y cells assessed as cell viability at 25 uM after 24 hrs by MTT assay; format: cell-based; conditions: read-out: Activity
[18] = Cytotoxicity against human SH-SY5Y cells assessed as cell viability at 5 uM after 24 hrs by MTT assay; format: cell-based; conditions: read-out: Activity
[19] = Cytotoxicity against human SH-SY5Y cells assessed as cell viability at 50 uM after 24 hrs by MTT assay; format: cell-based; conditions: read-out: Activity

Sequence of Cholinesterase (Equus caballus, UniProt P81908) (P81908 whole entry): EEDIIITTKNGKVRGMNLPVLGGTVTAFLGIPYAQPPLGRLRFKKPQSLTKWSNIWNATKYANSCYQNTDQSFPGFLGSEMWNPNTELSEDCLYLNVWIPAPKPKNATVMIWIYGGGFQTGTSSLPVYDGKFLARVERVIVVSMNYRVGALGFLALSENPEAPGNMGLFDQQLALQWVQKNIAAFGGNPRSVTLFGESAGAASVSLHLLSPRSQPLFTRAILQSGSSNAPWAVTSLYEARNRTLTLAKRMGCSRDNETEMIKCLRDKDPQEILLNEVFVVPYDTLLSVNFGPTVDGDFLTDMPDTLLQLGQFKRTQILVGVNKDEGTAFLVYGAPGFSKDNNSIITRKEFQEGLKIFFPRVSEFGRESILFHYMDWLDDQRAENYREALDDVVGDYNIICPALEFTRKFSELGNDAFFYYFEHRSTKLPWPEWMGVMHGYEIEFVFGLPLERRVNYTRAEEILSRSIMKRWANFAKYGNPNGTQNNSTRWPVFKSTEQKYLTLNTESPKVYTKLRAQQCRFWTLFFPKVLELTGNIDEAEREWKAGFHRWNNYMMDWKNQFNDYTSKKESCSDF
Sequence of Cholinesterase (Homo sapiens, UniProt P06276) (P06276 whole entry): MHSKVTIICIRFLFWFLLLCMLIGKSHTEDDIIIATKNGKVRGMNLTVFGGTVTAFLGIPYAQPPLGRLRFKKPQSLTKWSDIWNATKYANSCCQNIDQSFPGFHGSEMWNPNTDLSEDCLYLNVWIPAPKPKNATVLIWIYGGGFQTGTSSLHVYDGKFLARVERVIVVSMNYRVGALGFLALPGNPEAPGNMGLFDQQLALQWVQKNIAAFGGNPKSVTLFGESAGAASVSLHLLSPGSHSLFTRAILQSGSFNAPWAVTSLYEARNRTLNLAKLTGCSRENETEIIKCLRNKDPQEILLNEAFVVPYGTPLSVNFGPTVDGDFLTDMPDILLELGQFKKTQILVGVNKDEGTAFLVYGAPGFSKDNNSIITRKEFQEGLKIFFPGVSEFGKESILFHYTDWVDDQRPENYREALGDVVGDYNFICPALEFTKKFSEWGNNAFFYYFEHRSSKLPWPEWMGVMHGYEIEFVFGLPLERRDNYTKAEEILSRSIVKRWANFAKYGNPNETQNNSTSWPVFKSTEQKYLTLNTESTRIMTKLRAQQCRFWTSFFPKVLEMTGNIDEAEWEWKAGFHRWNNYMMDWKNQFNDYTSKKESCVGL
Sequence of Acetylcholinesterase (Homo sapiens, UniProt P22303) (P22303 whole entry): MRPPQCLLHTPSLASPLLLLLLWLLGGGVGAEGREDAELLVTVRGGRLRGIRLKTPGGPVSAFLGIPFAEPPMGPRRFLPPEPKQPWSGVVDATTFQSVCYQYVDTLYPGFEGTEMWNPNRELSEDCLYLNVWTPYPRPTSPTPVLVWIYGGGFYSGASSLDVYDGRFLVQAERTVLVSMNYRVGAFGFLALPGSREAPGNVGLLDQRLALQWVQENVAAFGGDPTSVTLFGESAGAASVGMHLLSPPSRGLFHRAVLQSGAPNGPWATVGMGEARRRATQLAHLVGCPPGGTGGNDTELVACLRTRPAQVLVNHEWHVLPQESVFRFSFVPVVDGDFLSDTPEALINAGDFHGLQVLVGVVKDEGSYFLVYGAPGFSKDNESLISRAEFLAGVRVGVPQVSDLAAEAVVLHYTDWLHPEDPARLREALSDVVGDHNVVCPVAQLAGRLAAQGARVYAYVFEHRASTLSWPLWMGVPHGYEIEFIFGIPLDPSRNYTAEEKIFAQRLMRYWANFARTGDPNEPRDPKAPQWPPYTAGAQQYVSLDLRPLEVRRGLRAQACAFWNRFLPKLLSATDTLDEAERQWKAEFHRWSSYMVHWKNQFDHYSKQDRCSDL
Sequence of Acetylcholinesterase (Electrophorus electricus, UniProt O42275) (O42275 whole entry): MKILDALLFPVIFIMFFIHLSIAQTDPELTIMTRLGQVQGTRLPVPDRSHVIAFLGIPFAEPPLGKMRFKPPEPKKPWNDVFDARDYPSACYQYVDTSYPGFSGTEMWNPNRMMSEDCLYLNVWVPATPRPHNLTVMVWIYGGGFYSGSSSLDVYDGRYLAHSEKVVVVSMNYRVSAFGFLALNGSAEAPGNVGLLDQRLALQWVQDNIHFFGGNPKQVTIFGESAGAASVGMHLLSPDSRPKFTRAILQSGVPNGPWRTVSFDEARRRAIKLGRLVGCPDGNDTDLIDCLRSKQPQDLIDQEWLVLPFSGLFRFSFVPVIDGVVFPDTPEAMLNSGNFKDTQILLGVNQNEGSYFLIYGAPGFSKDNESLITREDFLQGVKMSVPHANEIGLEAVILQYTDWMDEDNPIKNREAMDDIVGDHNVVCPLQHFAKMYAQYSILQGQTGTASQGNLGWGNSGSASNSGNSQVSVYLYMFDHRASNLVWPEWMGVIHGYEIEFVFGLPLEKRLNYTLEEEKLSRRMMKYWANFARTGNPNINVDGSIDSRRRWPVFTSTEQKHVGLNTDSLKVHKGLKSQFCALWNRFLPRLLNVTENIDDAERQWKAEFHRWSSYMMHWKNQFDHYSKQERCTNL
Sequence of Cholinesterase (Equus caballus) (P81908 whole entry): as the sequence (P81908 whole entry) above
Sequence of Acetylcholinesterase (Electrophorus electricus) (O42275 24-633 limits assumed): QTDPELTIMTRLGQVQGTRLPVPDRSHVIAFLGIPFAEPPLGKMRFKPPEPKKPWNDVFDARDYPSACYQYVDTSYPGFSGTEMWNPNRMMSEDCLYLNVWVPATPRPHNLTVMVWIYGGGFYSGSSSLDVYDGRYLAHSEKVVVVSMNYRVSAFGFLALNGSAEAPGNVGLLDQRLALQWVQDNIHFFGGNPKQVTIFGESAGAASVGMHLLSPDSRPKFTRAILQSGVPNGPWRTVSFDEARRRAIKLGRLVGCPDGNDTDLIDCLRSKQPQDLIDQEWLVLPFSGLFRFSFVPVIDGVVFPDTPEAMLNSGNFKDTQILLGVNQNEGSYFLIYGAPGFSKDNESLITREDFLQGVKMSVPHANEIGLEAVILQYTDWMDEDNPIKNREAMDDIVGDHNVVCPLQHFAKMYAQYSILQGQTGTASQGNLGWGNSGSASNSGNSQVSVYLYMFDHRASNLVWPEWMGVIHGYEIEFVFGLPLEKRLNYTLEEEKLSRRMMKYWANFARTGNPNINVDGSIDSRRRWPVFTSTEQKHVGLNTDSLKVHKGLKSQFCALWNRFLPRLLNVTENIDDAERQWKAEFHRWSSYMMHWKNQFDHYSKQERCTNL

| Compound | IC50 (Acetylcholinesterase [1]) | inhibition (INH) [2] | IC50 (Cholinesterase [3]) | Ratio IC50 (Homo sapiens) | IC50 [4] | IC50 (Cholinesterase [5]) | IC50 (Acetylcholinesterase [6]) | other results |
| --- | --- | --- | --- | --- | --- | --- | --- | --- |
| O=c1cc(C(F)(F)F)c2ccc(OCCNC3CCN(Cc4ccccc4)CC3)cc2o1 | 9.18 µM | Not Active | 10.2 µM | > 3.51 | 28.5 µM | – | – | – |
| O=c1ccc2ccc(OCCCNC3CCN(Cc4ccccc4)CC3)cc2o1 | 11.7 µM | Not Active | 9.86 µM | > 7.94 | 12.6 µM | – | – | – |
| Cc1cc(=O)oc2cc(OCCNC3CCN(Cc4ccccc4)CC3)ccc12 | 5.62 µM | Not Active | 4.38 µM | > 36.4 | 2.75 µM | – | – | – |
| O=c1ccc2ccc(OCCNCCC3CCN(Cc4ccccc4)CC3)cc2o1 | 8.91 µM | Not Active | 9.79 µM | > 3.29 | 30.4 µM | – | – | – |
| Cc1cc2ccc(OCCNC3CCN(Cc4ccccc4)CC3)cc2oc1=O | 6.03 µM | Not Active | 7.53 µM | > 42 | 2.38 µM | – | – | – |
| O=c1cc(Cl)c2ccc(OCCNC3CCN(Cc4ccccc4)CC3)cc2o1 | 1.5 µM | Not Active | 1.48 µM | > 2.95 | 33.9 µM | 2.93 µM | 2.04 µM | – |
| CCOc1cc(=O)oc2cc(OCCNC3CCN(Cc4ccccc4)CC3)ccc12 | 6.34 µM | Not Active | 6.95 µM | > 3.13 | 31.9 µM | – | – | – |
| O=c1ccc2ccc(OCCNC3CCN(Cc4ccccc4)CC3)cc2o1 | 4.42 µM | Not Active | 5.34 µM | > 11.9 | 8.39 µM | – | – | – |
| Cc1cc(=O)oc2cc(CNC3CCN(Cc4ccccc4)CC3)ccc12 | 7.28 µM | Not Active | 10.8 µM | > 51.8 | 1.93 µM | – | – | – |
| Cc1cc(=O)oc2cc(CNCCC3CCN(Cc4ccccc4)CC3)ccc12 | 0.91 µM | Not Active | 0.96 µM | > 2.47 | 40.5 µM | 3.45 µM | 0.067 µM | – |
| Cc1c(Cl)c(=O)oc2cc(OCCNC3CCN(Cc4ccccc4)CC3)ccc12 | 1.58 µM | Not Active | 1.42 µM | > 6.8 | 14.7 µM | 1.68 µM | 1.82 µM | – |
| O=c1cc(-c2ccccc2)c2ccc(OCCNC3CCN(Cc4ccccc4)CC3)cc2o1 | 9.65 µM | Not Active | 8.93 µM | > 2.19 | 45.6 µM | – | – | – |
| O=c1oc2cc(OCCNC3CCN(Cc4ccccc4)CC3)ccc2c2c1CCCC2 | 0.87 µM | Not Active | 0.93 µM | > 38.2 | 2.62 µM | 1.98 µM | 1.37 µM | viability at 24 h, 25 µM [7]: 105%; viability at 24 h, 50 µM [8]: 104%; inhibition (INH) [9]: Active; inhibition [10]: Active; inhibition [11]: Active; Papp at 16 h, 25 ug/ml (in vitro): 16.2 ×10⁻⁶ cm/s; viability at 24 h, 1 µM [12]: 99.6%; viability at 24 h, 10 µM [13]: 97.5%; viability at 24 h, 12.5 µM [14]: 101%; viability at 24 h, 6.25 µM [15]: 101%; Activity [16]: 47%; viability at 24 h, 25 µM [17]: 94.6%; viability at 24 h, 5 µM [18]: 102%; viability at 24 h, 50 µM [19]: 92.6% |
| COc1cc(=O)oc2cc(OCCNC3CCN(Cc4ccccc4)CC3)ccc12 | 6.29 µM | Not Active | 5.64 µM | > 2.98 | 33.6 µM | – | – | – |
| Cc1c(C)c2ccc(OCCNC3CCN(Cc4ccccc4)CC3)cc2oc1=O | 1.48 µM | Not Active | 1.67 µM | > 4.27 | 23.4 µM | 2.67 µM | 1.69 µM | – |
